ChEMBL document CHEMBL1201862, “PubChem BioAssay data set” (2004)
Activity calls are given as the source filed them.

Columns and labels:
Format in all cases: functional
Melanocortin receptor 4 = Melanocortin receptor 4 (Homo sapiens, UniProt P32245); test: MC4R antagonist potency on cAMP, dose response, cell-based, TR-FRET, biased antagonists (AID 602298);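 note: antagonist potency against agonist-stimulated cAMP production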
[1] = biological target: T1, Ubiquitin-conjugating enzyme E2 N (Homo sapiens, UniProt P61088);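 note: Dose-response confirmation in a TR-FRET assay detecting UBC13-driven polyubiquitin chain formation, inhibition measured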
T1 sequence (P61088 whole entry): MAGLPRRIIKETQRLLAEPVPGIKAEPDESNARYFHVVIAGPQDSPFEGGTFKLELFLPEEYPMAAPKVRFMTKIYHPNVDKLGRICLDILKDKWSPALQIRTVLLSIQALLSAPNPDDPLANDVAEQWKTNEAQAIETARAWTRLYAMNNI

[2] = nonselective inhibitors of cellular cAMP signaling, dose response, counter-screen for MC4R biased antagonist project, cell-based, TR-FRET cAMP detection (AID 602305);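 note: U2OS cells stimulated with forskolin near its EC80 as the cAMP inducer; potency is for inhibition of forskolin-stimulated cAMP signaling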
[3] = biological target: T2, C-C chemokine receptor type 6 (Homo sapiens, UniProt P51684); test: CCR6 receptor antagonists, dose response, cell-based, luminescent beta-arrestin readout (AID 504728)
T2 sequence (P51684 whole entry): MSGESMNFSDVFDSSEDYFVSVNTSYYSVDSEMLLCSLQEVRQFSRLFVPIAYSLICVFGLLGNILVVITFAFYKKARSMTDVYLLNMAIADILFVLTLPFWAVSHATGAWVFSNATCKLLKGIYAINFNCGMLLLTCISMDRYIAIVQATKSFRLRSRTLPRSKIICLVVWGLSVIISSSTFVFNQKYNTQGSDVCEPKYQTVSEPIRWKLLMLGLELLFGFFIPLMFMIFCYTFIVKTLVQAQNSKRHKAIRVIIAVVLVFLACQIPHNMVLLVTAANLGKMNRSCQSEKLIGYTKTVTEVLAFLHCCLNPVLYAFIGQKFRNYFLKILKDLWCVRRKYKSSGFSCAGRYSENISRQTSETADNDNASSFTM

Beta-galactosidase = Beta-galactosidase (Escherichia coli, UniProt Q8VNN2); test: beta-galactosidase enzyme inhibitors and activators, dose response, artefact control for CCR6 antagonist project, biochemical, E. coli enzyme, set 3 (AID 504712)
Chain of Beta-galactosidase (Q8VNN2 whole entry): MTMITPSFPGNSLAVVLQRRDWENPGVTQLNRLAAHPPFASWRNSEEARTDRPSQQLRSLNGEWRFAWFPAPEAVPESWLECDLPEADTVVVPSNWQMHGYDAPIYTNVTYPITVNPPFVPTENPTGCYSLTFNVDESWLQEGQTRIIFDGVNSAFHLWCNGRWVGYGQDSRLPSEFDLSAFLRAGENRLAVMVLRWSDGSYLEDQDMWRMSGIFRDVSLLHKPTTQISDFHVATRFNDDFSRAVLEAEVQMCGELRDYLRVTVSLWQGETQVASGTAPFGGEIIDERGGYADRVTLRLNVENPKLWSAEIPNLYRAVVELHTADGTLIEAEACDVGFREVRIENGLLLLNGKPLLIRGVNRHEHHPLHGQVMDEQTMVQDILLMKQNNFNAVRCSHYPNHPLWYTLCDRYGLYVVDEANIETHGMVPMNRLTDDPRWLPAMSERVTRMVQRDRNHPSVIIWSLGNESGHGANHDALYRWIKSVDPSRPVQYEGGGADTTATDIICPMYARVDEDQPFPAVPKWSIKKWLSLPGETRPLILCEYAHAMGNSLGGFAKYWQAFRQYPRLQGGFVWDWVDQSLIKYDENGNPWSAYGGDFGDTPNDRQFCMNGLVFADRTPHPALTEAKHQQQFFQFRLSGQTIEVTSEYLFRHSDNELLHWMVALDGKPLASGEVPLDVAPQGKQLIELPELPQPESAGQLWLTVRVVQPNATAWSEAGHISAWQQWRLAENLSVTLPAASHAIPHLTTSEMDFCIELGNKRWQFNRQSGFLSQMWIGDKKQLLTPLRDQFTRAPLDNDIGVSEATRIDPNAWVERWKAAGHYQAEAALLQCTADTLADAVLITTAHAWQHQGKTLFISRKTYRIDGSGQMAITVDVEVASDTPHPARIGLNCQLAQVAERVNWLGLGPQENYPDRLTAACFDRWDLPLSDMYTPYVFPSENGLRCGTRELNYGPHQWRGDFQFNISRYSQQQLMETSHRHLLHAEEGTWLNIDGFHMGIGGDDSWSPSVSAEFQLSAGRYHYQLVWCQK

[4] = biological target: Proto-oncogene tyrosine-protein kinase ROS (Homo sapiens, UniProt P08922);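 note: ROS1 tested as one member of a kinome-wide kinase panel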
[5] = biological target: Ribosomal protein S6 kinase beta-1 (Homo sapiens, UniProt P23443);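 note: measured as one member of a kinome-wide profiling panel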
Chain of Ribosomal protein S6 kinase beta-1 (P23443 whole entry): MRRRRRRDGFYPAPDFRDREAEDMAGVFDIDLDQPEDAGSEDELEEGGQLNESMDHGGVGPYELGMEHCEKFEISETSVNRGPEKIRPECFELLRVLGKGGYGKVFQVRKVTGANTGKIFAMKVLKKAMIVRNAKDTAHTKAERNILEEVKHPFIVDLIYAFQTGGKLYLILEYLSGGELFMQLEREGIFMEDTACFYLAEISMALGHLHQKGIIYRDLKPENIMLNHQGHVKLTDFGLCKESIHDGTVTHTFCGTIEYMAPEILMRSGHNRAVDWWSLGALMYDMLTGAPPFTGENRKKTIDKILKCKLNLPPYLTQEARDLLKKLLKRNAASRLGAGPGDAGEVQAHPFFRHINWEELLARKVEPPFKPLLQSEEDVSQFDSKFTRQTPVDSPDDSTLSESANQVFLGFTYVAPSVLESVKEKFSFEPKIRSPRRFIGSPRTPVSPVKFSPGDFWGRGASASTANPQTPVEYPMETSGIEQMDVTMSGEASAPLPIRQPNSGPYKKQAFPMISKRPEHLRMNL

[6] = biological target: T3, High affinity choline transporter 1 (Homo sapiens, UniProt Q9GZV3); test: CHT inhibitors, dose response, cell-based, 10-point CRC, membrane potential dye (AID 588401);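 note: membrane potential dye fluorescence of choline-evoked depolarization via CHT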
T3 sequence (Q9GZV3 whole entry): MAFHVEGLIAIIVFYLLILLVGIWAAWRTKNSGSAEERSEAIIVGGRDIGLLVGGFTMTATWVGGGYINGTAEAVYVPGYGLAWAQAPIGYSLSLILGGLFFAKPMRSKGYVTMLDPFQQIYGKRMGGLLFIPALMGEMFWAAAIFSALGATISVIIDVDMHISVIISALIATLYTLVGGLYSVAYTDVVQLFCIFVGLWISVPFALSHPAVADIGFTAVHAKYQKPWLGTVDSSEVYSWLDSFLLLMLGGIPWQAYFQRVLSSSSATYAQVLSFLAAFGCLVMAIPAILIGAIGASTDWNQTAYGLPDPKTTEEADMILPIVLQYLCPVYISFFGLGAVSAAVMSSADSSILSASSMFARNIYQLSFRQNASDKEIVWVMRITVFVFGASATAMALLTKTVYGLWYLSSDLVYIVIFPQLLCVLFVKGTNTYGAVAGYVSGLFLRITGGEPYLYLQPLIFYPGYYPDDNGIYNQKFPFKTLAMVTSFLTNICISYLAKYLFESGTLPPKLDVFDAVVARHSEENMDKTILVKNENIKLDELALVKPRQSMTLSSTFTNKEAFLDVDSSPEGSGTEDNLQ

[7] = biological target: T3, High affinity choline transporter 1; test: CHT inhibitors, dose response, cell-based, 5-point CRC, membrane potential dye (AID 504840)
[8] = A cytotoxicity screen of small molecule inhibitors of the PhoP region in Salmonella typhi identified in the primary screen. [Related pubchem assays: 1850, 1864, 1985 ]
HEK293 = test: inhibitors of LMP1-driven NF-kB reporter, dose response, cell-based, HEK293, luciferase, cherry-pick (AID 588343); conditions: Homo sapiens
Cysteine protease ATG4B = biological target: T4, Cysteine protease ATG4B (Homo sapiens, UniProt Q9Y4P1);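 note: Fluorescence-based dose-response confirmation assay measuring inhibition of ATG4B activity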
T4 sequence (Q9Y4P1 whole entry): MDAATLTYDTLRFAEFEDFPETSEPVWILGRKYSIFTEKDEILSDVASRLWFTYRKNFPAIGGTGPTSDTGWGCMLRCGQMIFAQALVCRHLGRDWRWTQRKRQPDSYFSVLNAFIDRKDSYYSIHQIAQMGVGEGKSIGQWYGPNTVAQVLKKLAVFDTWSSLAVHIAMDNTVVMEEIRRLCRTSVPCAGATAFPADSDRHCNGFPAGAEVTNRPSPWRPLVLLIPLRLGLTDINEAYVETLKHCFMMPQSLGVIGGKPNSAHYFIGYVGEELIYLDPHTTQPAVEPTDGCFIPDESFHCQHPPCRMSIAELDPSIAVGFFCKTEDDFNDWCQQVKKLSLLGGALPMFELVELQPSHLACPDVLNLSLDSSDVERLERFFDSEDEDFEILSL

[9] = biological target: T5, DNA repair and recombination protein RAD54-like (Homo sapiens, UniProt Q92698); test: inhibitors of human RAD54 branch migration, confirmation, biochemical, fluorescence, cherry-picked samples, dose series (AID 651657)
T5 sequence (Q92698 whole entry): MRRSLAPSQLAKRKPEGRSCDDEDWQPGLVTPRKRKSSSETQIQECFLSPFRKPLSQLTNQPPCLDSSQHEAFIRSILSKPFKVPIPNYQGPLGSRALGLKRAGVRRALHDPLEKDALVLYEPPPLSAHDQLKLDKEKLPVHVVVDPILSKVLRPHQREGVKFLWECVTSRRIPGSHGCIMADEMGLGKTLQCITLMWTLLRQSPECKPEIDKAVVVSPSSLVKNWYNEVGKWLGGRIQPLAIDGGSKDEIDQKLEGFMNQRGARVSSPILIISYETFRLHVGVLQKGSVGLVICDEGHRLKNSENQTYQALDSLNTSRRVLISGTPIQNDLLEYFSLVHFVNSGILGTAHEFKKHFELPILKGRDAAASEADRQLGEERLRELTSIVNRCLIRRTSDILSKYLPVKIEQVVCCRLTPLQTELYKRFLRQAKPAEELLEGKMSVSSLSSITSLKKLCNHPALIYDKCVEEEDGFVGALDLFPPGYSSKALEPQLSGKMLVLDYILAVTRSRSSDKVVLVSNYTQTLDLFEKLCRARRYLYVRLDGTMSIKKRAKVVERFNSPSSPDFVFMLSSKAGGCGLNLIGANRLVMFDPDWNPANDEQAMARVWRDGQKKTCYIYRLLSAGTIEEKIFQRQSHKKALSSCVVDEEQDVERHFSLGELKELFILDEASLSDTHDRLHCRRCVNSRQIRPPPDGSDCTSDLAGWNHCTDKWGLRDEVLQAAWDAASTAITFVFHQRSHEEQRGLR

Phospholipase A2 = Phospholipase A2 (Homo sapiens, UniProt P04054);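 note: confirmatory dose-response counterscreen on phospholipase A2, testing hits that came from an ultra-high-throughput screen for ATG4B inhibitors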
Chain of Phospholipase A2 (P04054 whole entry): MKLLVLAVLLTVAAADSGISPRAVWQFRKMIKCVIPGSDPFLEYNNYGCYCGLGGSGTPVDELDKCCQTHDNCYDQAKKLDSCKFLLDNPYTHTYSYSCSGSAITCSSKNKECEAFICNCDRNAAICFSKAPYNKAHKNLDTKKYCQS

Genome polyprotein = Genome polyprotein (dengue virus type 2, UniProt P29990); test: Dengue-2 NS5 methyltransferase inhibitors, primary screen, biochemical, confirmation dose response (AID 588689)
Hexokinase HKDC1 = biological target: T6, Hexokinase HKDC1 (Homo sapiens, UniProt Q2TB90); test: HKDC1 hexokinase inhibitors, dose response, biochemical, W721R variant (AID 504729)
T6 sequence (Q2TB90 whole entry): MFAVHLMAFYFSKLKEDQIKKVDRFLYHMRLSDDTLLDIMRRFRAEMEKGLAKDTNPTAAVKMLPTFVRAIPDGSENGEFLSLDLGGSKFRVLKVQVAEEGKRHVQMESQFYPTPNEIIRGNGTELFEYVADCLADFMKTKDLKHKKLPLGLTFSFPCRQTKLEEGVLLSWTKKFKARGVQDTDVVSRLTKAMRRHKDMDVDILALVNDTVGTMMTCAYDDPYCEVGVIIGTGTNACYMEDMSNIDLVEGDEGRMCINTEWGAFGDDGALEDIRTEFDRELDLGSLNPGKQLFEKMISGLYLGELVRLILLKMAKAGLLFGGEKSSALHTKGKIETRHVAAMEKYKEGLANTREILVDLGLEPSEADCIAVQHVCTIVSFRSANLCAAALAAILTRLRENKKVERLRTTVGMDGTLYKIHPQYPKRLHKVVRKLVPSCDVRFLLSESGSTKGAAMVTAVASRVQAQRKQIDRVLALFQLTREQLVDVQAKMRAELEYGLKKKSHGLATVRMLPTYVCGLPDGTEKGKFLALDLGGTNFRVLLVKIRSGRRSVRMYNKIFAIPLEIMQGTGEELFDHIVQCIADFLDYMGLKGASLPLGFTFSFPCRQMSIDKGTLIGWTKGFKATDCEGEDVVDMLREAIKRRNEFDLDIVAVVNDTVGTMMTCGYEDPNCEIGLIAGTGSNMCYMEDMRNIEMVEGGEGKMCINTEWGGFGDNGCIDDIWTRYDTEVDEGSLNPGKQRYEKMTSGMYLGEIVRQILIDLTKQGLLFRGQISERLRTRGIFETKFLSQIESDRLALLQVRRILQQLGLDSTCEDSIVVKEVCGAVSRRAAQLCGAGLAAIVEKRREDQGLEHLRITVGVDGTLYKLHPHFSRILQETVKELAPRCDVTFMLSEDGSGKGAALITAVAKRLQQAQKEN

[10] = biological target: Vascular endothelial growth factor receptor 1 (Homo sapiens, UniProt P17948);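 note: measured within a kinome-wide profiling panel, FLT1 as the panel member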
[11] = biological target: Rho-associated protein kinase 1 (Homo sapiens, UniProt Q13464);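 note: measured within a broad kinome-wide panel profiling many kinases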
Chain of Rho-associated protein kinase 1 (Q13464 whole entry, the tested form may be a part): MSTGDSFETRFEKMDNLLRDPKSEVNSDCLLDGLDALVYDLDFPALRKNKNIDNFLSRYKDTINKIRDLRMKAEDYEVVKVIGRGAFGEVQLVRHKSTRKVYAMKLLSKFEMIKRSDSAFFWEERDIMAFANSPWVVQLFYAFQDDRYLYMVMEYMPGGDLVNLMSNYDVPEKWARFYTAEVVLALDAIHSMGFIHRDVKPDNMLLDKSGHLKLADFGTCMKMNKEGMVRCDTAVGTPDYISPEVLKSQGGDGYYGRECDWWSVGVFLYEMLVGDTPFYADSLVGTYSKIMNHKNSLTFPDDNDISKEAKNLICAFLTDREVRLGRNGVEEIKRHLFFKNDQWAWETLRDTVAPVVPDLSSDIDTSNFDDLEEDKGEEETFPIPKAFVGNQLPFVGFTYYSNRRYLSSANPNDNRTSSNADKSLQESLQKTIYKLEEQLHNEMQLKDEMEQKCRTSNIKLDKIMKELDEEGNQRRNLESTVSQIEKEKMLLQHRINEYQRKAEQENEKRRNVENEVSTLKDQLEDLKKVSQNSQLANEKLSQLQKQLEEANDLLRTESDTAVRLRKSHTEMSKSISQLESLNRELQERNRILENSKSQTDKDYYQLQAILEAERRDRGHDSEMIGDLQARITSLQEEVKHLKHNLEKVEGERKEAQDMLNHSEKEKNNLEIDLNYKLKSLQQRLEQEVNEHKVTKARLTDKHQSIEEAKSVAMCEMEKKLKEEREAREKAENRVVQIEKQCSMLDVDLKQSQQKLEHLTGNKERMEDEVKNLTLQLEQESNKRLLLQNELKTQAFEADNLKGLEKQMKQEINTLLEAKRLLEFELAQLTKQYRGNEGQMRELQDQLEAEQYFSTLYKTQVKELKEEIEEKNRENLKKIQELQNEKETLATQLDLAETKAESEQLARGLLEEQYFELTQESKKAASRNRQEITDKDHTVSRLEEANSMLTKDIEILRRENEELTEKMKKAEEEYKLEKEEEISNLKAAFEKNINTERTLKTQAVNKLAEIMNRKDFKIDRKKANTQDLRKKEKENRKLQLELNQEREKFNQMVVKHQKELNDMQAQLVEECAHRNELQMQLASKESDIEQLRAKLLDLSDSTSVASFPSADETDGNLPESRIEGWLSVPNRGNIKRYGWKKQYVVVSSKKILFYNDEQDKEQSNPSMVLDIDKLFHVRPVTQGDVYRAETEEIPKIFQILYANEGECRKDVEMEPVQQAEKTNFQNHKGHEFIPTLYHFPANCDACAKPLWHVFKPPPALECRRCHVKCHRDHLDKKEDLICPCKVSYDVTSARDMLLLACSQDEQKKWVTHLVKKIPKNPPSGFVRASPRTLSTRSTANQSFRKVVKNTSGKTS

LIM domain kinase 1 = LIM domain kinase 1 (Homo sapiens, UniProt P53667); test: Navigating the Kinome. Panel member name: LIMK1
Chain of LIM domain kinase 1 (P53667 whole entry, the tested form may be a part): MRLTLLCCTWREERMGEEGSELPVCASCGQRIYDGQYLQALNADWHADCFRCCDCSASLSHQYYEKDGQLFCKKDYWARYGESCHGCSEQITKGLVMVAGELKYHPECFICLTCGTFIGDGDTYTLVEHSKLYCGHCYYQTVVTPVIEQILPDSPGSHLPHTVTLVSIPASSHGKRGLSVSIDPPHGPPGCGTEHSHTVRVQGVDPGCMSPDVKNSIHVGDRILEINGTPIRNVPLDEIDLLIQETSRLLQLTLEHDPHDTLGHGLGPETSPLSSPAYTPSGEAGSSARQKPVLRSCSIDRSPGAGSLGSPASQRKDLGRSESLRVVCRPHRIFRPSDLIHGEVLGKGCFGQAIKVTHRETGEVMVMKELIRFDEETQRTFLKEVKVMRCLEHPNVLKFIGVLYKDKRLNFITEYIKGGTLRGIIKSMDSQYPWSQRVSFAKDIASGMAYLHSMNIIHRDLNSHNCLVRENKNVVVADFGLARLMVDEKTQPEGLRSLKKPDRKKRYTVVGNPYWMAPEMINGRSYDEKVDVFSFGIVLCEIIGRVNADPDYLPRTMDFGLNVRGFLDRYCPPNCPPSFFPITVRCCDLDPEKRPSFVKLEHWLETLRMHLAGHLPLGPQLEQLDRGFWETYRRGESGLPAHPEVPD

[12] = biological target: Cyclin-dependent kinase 8 (Homo sapiens, UniProt P49336); test: Navigating the Kinome. Panel member name: CDK8
Chain of Cyclin-dependent kinase 8 (P49336 whole entry): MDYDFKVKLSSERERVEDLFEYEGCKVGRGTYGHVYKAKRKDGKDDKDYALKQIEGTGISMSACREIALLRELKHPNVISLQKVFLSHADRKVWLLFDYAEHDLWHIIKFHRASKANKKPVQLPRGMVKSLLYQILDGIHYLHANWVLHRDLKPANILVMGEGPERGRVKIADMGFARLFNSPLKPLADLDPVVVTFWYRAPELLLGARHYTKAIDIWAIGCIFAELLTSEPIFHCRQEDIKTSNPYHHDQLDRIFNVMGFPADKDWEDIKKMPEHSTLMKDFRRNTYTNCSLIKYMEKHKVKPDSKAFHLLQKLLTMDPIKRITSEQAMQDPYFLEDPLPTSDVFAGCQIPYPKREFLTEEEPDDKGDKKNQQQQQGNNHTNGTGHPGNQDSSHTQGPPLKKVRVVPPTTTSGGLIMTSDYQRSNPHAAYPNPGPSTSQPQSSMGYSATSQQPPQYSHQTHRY

[13] = biological target: Dual specificity protein kinase CLK4 (Homo sapiens, UniProt Q9HAZ1)
Chain of Dual specificity protein kinase CLK4 (Q9HAZ1 whole entry): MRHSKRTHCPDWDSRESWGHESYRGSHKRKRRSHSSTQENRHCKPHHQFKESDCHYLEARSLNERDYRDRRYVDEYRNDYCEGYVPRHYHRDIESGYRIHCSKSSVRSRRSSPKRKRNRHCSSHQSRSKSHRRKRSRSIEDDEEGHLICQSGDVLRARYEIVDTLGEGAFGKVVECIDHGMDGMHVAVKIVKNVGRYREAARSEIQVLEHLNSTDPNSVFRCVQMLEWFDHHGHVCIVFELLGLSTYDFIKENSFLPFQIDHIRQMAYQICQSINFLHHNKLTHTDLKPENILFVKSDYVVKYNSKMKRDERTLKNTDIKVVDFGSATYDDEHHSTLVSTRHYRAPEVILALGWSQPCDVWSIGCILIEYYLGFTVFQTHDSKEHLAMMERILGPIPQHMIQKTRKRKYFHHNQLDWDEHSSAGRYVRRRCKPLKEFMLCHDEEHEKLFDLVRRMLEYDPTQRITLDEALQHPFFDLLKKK

[14] = biological target: Cyclin-dependent kinase 9 (Homo sapiens, UniProt P50750);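 note: value from the CDK9 entry of a kinome-spanning kinase panel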
[15] = biological target: Ras and Rab interactor 1/Tyrosine-protein kinase ABL1 (Homo sapiens, UniProt P00519+Q13671);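 note: biochemical TR-FRET dose-response test measuring inhibition of binding between Rin1 and Abl proteins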

Chain of Melanocortin receptor 4 (P32245 whole entry): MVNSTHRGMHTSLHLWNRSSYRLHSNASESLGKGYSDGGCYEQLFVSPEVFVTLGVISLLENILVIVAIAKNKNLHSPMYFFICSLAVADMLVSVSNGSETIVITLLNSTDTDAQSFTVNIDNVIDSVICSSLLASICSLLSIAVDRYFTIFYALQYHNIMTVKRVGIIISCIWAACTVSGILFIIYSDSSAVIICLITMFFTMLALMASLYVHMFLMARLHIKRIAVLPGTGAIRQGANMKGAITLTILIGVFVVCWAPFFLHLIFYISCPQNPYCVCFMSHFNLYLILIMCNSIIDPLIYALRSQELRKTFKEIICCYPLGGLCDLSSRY

CC(C)[C@H](CN1CCC[C@H]1CN1C(N)=NC[C@@H]1Cc1ccccc1)N1C[C@@H](Cc2ccccc2)N(CCc2ccc(Cl)c(Cl)c2)C1=N
IC50 (Melanocortin receptor 4): 7.16 µM (active) | IC50 [1]: > 20 µM (inactive) | IC50 [2]: > 64.6 µM (inactive)

O=C1/C(=C/c2ccc([N+](=O)[O-])cc2)C=C(c2ccccc2)N1c1ccc(O)cc1
IC50 [3]: > 66.6 µM (inactive) | IC50 (Beta-galactosidase): > 66.6 µM (inactive) | IC50 (Melanocortin receptor 4): > 64.6 µM (inactive) | IC50 [2]: > 64.6 µM (inactive)

O=C(Cc1cccc2cnccc12)NCc1ccc(Br)cc1
Ki [4]: 1.58 µM (active) | Ki [5]: 6.31 µM (active)

O=C(O)CC1=C(Nc2ccccc2)C(=O)N(c2ccccc2)C1c1ccc(Br)cc1 (stereo unspecified)
IC50 [6]: 3.98 µM (active) | IC50 [7]: 5.55 µM (active)

Cc1nnc(SCc2cnc(-c3ccc(C(C)C)cc3)s2)n1C
IC50 [6]: 10 µM (active) | EC50 [8]: > 50 µM (active) | IC50 [7]: 1.28 µM (active) | AC50 (HEK293): 4.43 µM (active)

Cc1ccc2nc3c(c(Nc4ccc5c(c4)OCCO5)c2c1)CCC3
IC50 (Cysteine protease ATG4B): 10.7 µM (active) | AC50 [9]: 54.9 µM (active) | IC50 (Phospholipase A2): 7.53 µM (active)

COC1=C(Br)C(=O)c2ncccc2C1=O
IC50 (Cysteine protease ATG4B): 3.53 µM (active) | IC50 [3]: > 66.6 µM (inactive) | IC50 (Beta-galactosidase): > 66.6 µM (inactive) | IC50 (Genome polyprotein): 3.41 µM (active) | IC50 (Phospholipase A2): > 80 µM (inactive) | IC50 (Hexokinase HKDC1): 3.56 µM (active)

Cc1ccccc1-c1cccc2nccn12
Ki [10]: 15.8 µM (active) | Ki [11]: 63.1 µM (active) | Ki (LIM domain kinase 1): 79.4 µM (active) | Ki [12]: 12.6 µM (active) | Ki [13]: 79.4 µM (active) | Ki [14]: 39.8 µM (active)

CN(CCc1ccccc1)C(=O)c1ccc(NC(=O)Cc2ccc(NC(=O)C3CCN(C(=O)C4CCCC4)CC3)cc2)cc1
IC50 [15]: 1.38 µM (active)
